Data as given in ChEMBL document CHEMBL5625179, “2-Substituted quinazolines: Partial agonistic and antagonistic ligands of the constitutive androstane receptor (CAR)” (Eur J Med Chem, 2023).

Tests used:
Type in all cases: cell-based
[1] = target: T1, Nuclear receptor subfamily 1 group I member 3 (Homo sapiens, UniProt Q14994); assay: Activation of human CAR LBD expressed in human HepG2 cells at 30 uM incubated for 24 hrs by dual luciferase reporter assay relative to CITCO; details: hepg2, 24 h
T1 sequence (Q14994 whole entry): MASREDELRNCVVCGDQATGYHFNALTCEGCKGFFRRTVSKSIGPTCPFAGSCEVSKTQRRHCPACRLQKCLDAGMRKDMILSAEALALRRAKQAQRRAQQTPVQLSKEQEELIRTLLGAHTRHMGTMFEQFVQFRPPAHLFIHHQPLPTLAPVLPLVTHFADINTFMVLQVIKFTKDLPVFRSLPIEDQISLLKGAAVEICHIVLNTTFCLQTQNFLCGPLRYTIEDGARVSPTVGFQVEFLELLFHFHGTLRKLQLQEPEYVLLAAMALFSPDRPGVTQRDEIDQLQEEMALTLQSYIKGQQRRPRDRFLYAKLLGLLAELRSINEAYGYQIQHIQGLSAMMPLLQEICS

[2] = target: T1, Nuclear receptor subfamily 1 group I member 3; assay: Activation of human CAR3 expressed in human HepG2 cells at 30 uM incubated for 24 hrs by dual luciferase gene reporter assay relative to CITCO; details: hepg2, 24 h
[3] = target: T1, Nuclear receptor subfamily 1 group I member 3; assay: Antagonist activity at human CAR LBD expressed in human HepG2 cells at 30 uM incubated for 24 hrs in presence of CITCO by dual luciferase reporter assay; details: hepg2, 24 h
[4] = target: T1, Nuclear receptor subfamily 1 group I member 3; assay: Partial agonist activity at human CAR LBD (151 to 349 residues) expressed in HepG2 cells coexpressed with pGL5-luc luciferase measured after 1 to 4 hrs by LanthaScreen TR-FRET assay; details: for Activity: human, hepg2, time 1-4 hrs
[5] = target: T1, Nuclear receptor subfamily 1 group I member 3; assay: Antagonist activity at human CAR LBD (151 to 349 residues) expressed in HepG2 cells co-expressed with pGL5-luc luciferase assessed as reduction in CAR activation measured after 1 to 4 hrs in presence of CITCO by LanthaScreen TR-FRET assay
CAR3 (NR1I3) = target: T2, CAR3 (NR1I3) (Homo sapiens, UniProt Q14994); assay: Antagonist activity at human CAR3 expressed in human HepG2 cells at 30 uM incubated for 24 hrs by dual luciferase gene reporter assay relative to CITCO; design: scale not given: the % may be the effect or the level left; details: HepG2 cells expressing human CAR3, read-out: Activity
T2 sequence (Q14994 whole entry): T1 sequence (Q14994 whole entry)

CAR (NR1I3) LBD [6] = target: T3, CAR (NR1I3) LBD (Homo sapiens, UniProt Q14994); assay: Antagonist activity at human CAR LBD expressed in human HepG2 cells at 30 uM incubated for 24 hrs by dual luciferase reporter assay relative to CITCO; design: scale not given: the % may be the effect or the level left; details: HepG2 cells expressing human CAR LBD, read-out: Activity
T3 sequence (Q14994 whole entry): T1 sequence (Q14994 whole entry)

[7] = target: T1, Nuclear receptor subfamily 1 group I member 3; assay: Antagonist activity at human CAR LBD expressed in human HepG2 cells incubated for 24 hrs in presence of CITCO by dual luciferase reporter assay
[8] = target: T1, Nuclear receptor subfamily 1 group I member 3; assay: Antagonist activity at human CAR LBD (151 to 349 residues) expressed in HepG2 cells co-expressed with pGL5-luc luciferase assessed as reduction in CAR activation measured after 1 to 4 hrs by LanthaScreen TR-FRET assay; details: time 1-4 hrs
CAR (NR1I3) LBD [9] = target: T3, CAR (NR1I3) LBD; assay: Partial agonist activity at human CAR LBD expressed in human HepG2 cells at 30 uM incubated for 24 hrs by dual luciferase reporter assay relative to CITCO; details: HepG2 cells expressing human CAR LBD, read-out: Activity
[10] = target: T1, Nuclear receptor subfamily 1 group I member 3; assay: Partial agonist activity human CAR3 expressed in human HepG2 cells at 30 uM incubated for 24 hrs by dual luciferase gene reporter assay relative to CITCO; details: hepg2, 24 h

Compound | Activity [1] | Activity [2] | other results
COc1ccc(-c2nc(O)c3ccccc3n2)cc1OC | 3% | 28% | 
Cc1cccc(-c2nc(O)c3ccccc3n2)c1 | 5% | 34% | 
COc1nc(-c2cccc([N+](=O)[O-])c2)nc2ccccc12 | -3% | 15% | 
Sc1nc(-c2ccc(Br)cc2)nc2ccccc12 |  |  | Activity [3]: Active; Activity [4]: Not Active; IC50 [5]: 95.7 µM; activity at 24 h, 30 µM (CAR3 (NR1I3)): 44%; activity at 24 h, 30 µM (CAR (NR1I3) LBD [6]): 1%; IC50 [7]: 30 µM; Activity [8]: Not Active
Oc1nc(-c2ccc(F)cc2)nc2ccccc12 | -6% | 10% | 
O=c1[nH]c(-c2ccc(Br)cc2)nc2ccccc12 | 3% | 12% | 
O=c1[nH]c(-c2ccc(C(F)(F)F)cc2)nc2ccccc12 | -8% | 12% | 
COc1ccc(-c2nc3ccccc3c(=O)[nH]2)cc1 | 3% | 33% | 
O=c1[nH]c(-c2ccc3c(c2)OCO3)nc2ccccc12 | -2% | 3% | 
CC(C)(C)c1ccc(-c2nc3ccccc3c(=O)[nH]2)cc1 | -5% | 7% | 
O=[N+]([O-])c1cccc(-c2nc3ccccc3c(=S)[nH]2)c1 | 1% | 11% | 
COc1ccc(-c2nc3ccccc3c(=O)n2C)cc1OC | -6% | 15% | 
COc1nc(-c2cccc(F)c2)nc2ccccc12 | -5% | 5% | 
COc1ccc(-c2nc3ccccc3c(=S)[nH]2)cc1OC | -4% | 13% | 
CC(C)(C)c1ccc(-c2nc3ccccc3c(=S)[nH]2)cc1 | 1% | 9% | 
Cn1c(-c2ccc(OC(F)(F)F)cc2)nc2ccccc2c1=O | -8% | 22% | Activity [3]: Active; Activity [4]: Not Active; Activity [8]: Not Active
O=c1[nH]c(-c2ccc(Cl)c(Cl)c2)nc2ccccc12 | -6% | 9% | 
S=c1[nH]c(-c2cccc(Cl)c2)nc2ccccc12 | 6% | 15% | 
CSc1nc(-c2cccc(C)c2)nc2ccccc12 |  |  | activity at 24 h, 30 µM (CAR (NR1I3) LBD [9]): 36.3%; Activity [3]: Active; EC50 [4]: 10.6 µM; Activity [10]: 44%
COc1nc(-c2ccc(OC(F)(F)F)cc2)nc2ccccc12 | -3% | 5% | 
Cn1c(-c2ccc(F)cc2)nc2ccccc2c1=O | -5% | 13% | 
Cc1cccc(-c2nc3ccccc3c(=O)n2C)c1 | -3% | 13% | 
